From US6706663B2, “Herbicidal 3-heterocyclic substituted benzisothiazole and benzisoxazole compounds” (Wyeth, priority 2000, dated 2004)

Assays:
[1] = system: GLXMAW (Soybean, Williams); test: Postemergence herbicidal evaluation; assay type: in vivo, Glycine max, (L.) Merr. cv Williams; conditions: postemergence
Procedure, shortened: (§1)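 Visual 0–9 injury scores versus control plants, covering stand, vigour, malformation, size, chlorosis and general appearance, taken four to five weeks post-spray and averaged over replicate tests. Plants were sprayed at roughly two weeks old and held on greenhouse benches.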

[2] = system: MOOVA (Monochoria vaginalis); test: Flooded paddy, preemergence weed control; assay type: in vivo, Presl.; conditions: rated 3-4 weeks after treatment, 0-9 rating scale
Procedure, shortened: (§2)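 Visual 0–9 ratings versus controls scored stand, vigor, malformation, size, chlorosis and overall appearance. Plants grew from seeds or propagating organs sown 0.5 cm deep in silt loam, with water held 1.5–3 cm above the soil for the whole test under greenhouse care.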

SETVI (Setaria viridis) [3] = test: Postemergence herbicidal evaluation; assay type: in vivo, (L.) Beau; conditions: postemergence
Procedure, shortened: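 Postemergence foliar spray on two-week-old seedlings, dose equivalent to about 0.0040 to 1.000 kg/ha. Ratings use a 0-9 visual scale relative to control at four to five weeks.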

[4] = system: ECHCG (Echinochloa crus-galli); test: Postemergence herbicidal evaluation; assay type: in vivo, (L.) Beau; conditions: postemergence
Procedure, shortened: as §1

GALAP (Galium aparine) = test: Preemergence herbicidal evaluation; assay type: in vivo; conditions: preemergence, rated 4-5 weeks after treatment
Procedure, shortened: (§3)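 Preemergence soil spray, aq. acetone; greenhouse; visual 0–9 score vs control at 4–5 wk.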

ORYSAT (Rice, Tebonnet) [5] = test: Preemergence herbicidal evaluation; assay type: in vivo, Oryza sativa, (L.) Tebonnet; conditions: preemergence, rated 4-5 weeks after treatment
[6] = system: ECHCG (Echinochloa crus-galli); test: Preemergence herbicidal evaluation; assay type: in vivo, (L.) Beau; conditions: preemergence, rated 4-5 weeks after treatment
Procedure, shortened: as §3

SETVI (Setaria viridis) [7] = test: Preemergence herbicidal evaluation; assay type: in vivo, (L.) Beau; conditions: preemergence, rated 4-5 weeks after treatment
Procedure, shortened: as §3

ORYSAT (Rice, Tebonnet) [8] = test: Postemergence herbicidal evaluation; assay type: in vivo, Oryza sativa, (L.) Tebonnet; conditions: postemergence
Procedure, shortened: as §1

ZEAMX (Corn, Field) = test: Postemergence herbicidal evaluation; assay type: in vivo, Zea mays, L.; conditions: postemergence
Procedure, shortened: as §1

[9] = system: AMBEL (Ambrosia artemisifolia); test: Preemergence herbicidal evaluation; assay type: in vivo, L.; conditions: preemergence, rated 4-5 weeks after treatment
Procedure, shortened: as §3

[10] = system: CASOB (Cassia obtusifolia); test: Preemergence herbicidal evaluation; assay type: in vivo, L.; conditions: preemergence, rated 4-5 weeks after treatment
Procedure, shortened: as §3

[11] = system: CHEAL (Chenopodium album); test: Preemergence herbicidal evaluation; assay type: in vivo, L.; conditions: preemergence, rated 4-5 weeks after treatment
Procedure, shortened: as §3

[12] = system: ABUTH (Abutilon theophrasti); test: Preemergence herbicidal evaluation; assay type: in vivo, Medic.; conditions: preemergence, rated 4-5 weeks after treatment
[13] = system: IPOHE (Ipomoea hederacea); test: Postemergence herbicidal evaluation; assay type: in vivo, (L.) Jacq.; conditions: postemergence
Procedure, shortened: as §1

[14] = system: ECHORC (Echinochloa oryzoides); test: Flooded paddy, preemergence weed control; assay type: in vivo, Echinochloa oryzoides (Ard.) Fritsch.; conditions: rated 3-4 weeks after treatment, 0-9 rating scale
Procedure, shortened: as §2

[15] = system: TRZAWR (Wheat, Winter, cv Riband); test: Postemergence herbicidal evaluation; assay type: in vivo, Triticum aestivum; conditions: postemergence
Procedure, shortened: as §1

Compound Cn1c(C(F)(F)F)cc(=O)n(-c2ccc3snc(C4OCC(CS(C)(=O)=O)O4)c3c2)c1=O (single isomer, unassigned) [Compound 86, 1-methyl-3-[3-[4-[(methylsulfonyl)methyl]-1,3-dioxolan-2-yl]-1,2-benzisothiazol-5-yl]-6-(trifluoromethyl)uracil] has a GLXMAW herbicidal rating ([1]; rate 0.0320 kg/ha) of 9.0, a GLXMAW herbicidal rating ([1]; rate 0.0620 kg/ha) of 9.0 and an MOOVA herbicidal rating ([2]; rate 0.0320 kg/ha) of 5.0. The MOOVA herbicidal rating ([2]; rate 0.1250 kg/ha) was 9.0, the SETVI herbicidal rating (SETVI (Setaria viridis) [3]; rate 0.0320 kg/ha) was 8.0 and the SETVI herbicidal rating (SETVI (Setaria viridis) [3]; rate 0.0620 kg/ha) was 9.0. For the same compound, the ECHCG herbicidal rating ([4]; rate 0.0320 kg/ha) was 4.0, the ECHCG herbicidal rating ([4]; rate 0.0620 kg/ha) was 5.0 and the “Preemergence herbicidal rating GALAP” value (GALAP (Galium aparine); rate 0.0620 kg/ha) was 3.0. The “Preemergence herbicidal rating GALAP” value (GALAP (Galium aparine); rate 0.1250 kg/ha) was 4.0, the “Preemergence herbicidal rating GALAP” value (GALAP (Galium aparine); rate 0.2500 kg/ha) was 9.0 and the “Preemergence herbicidal rating ORYSAT” value (ORYSAT (Rice, Tebonnet) [5]; rate 0.0620 kg/ha) was 5.0. For the same compound, the “Preemergence herbicidal rating ORYSAT” value (ORYSAT (Rice, Tebonnet) [5]; rate 0.1250 kg/ha) was 7.0, the “Preemergence herbicidal rating ORYSAT” value (ORYSAT (Rice, Tebonnet) [5]; rate 0.2500 kg/ha) was 9.0 and the “Preemergence herbicidal rating ECHCG” value ([6]; rate 0.0620 kg/ha) was 7.5. The “Preemergence herbicidal rating ECHCG” value ([6]; rate 0.1250 kg/ha) was 9.0, the “Preemergence herbicidal rating ECHCG” value ([6]; rate 0.2500 kg/ha) was 9.0 and the “Preemergence herbicidal rating SETVI” value (SETVI (Setaria viridis) [7]; rate 0.0620 kg/ha) was 7.5. The “Preemergence herbicidal rating SETVI” value (SETVI (Setaria viridis) [7]; rate 0.1250 kg/ha) was 9.0, the “Preemergence herbicidal rating SETVI” value (SETVI (Setaria viridis) [7]; rate 0.2500 kg/ha) was 9.0 and the ORYSAT herbicidal rating (ORYSAT (Rice, Tebonnet) [8]; rate 0.0320 kg/ha) was 4.0. It also gave an ORYSAT herbicidal rating (ORYSAT (Rice, Tebonnet) [8]; rate 0.0620 kg/ha) of 5.5, a ZEAMX herbicidal rating (ZEAMX (Corn, Field); rate 0.0320 kg/ha) of 4.0 and a ZEAMX herbicidal rating (ZEAMX (Corn, Field); rate 0.0620 kg/ha) of 4.0. For the same compound, the “Preemergence herbicidal rating AMBEL” value ([9]; rate 0.0620 kg/ha) was 9.0, the “Preemergence herbicidal rating AMBEL” value ([9]; rate 0.1250 kg/ha) was 9.0 and the “Preemergence herbicidal rating AMBEL” value ([9]; rate 0.2500 kg/ha) was 9.0. For the same compound, the “Preemergence herbicidal rating CASOB” value ([10]; rate 0.0620 kg/ha) was 4.0, the “Preemergence herbicidal rating CASOB” value ([10]; rate 0.1250 kg/ha) was 9.0 and the “Preemergence herbicidal rating CASOB” value ([10]; rate 0.2500 kg/ha) was 9.0. The “Preemergence herbicidal rating CHEAL” value ([11]; rate 0.0620 kg/ha) was 9.0, the “Preemergence herbicidal rating CHEAL” value ([11]; rate 0.1250 kg/ha) was 9.0 and the “Preemergence herbicidal rating CHEAL” value ([11]; rate 0.2500 kg/ha) was 9.0. For the same compound, the “Preemergence herbicidal rating ABUTH” value ([12]; rate 0.0620 kg/ha) was 9.0, the “Preemergence herbicidal rating ABUTH” value ([12]; rate 0.1250 kg/ha) was 9.0 and the “Preemergence herbicidal rating ABUTH” value ([12]; rate 0.2500 kg/ha) was 9.0. It also gave an IPOHE herbicidal rating ([13]; rate 0.0320 kg/ha) of 9.0, an IPOHE herbicidal rating ([13]; rate 0.0620 kg/ha) of 9.0 and an ECHORC herbicidal rating ([14]; rate 0.0320 kg/ha) of 0.0. It also gave an ECHORC herbicidal rating ([14]; rate 0.1250 kg/ha) of 3.0, a TRZAWR herbicidal rating ([15]; rate 0.0320 kg/ha) of 2.5 and a TRZAWR herbicidal rating ([15]; rate 0.0620 kg/ha) of 3.0.
